Assay results from ChEMBL document CHEMBL5357052, “Diastereomers of Steroidal Alkaloids with Cytotoxic Activities against Non-Small-Cell Lung Cancer from the Bulbs of Fritillaria sinica” (2024).

Tests used:
Format in all cases: functional
[1] = test system: A549; assay: Cytotoxicity against human A549 cells assessed as reduction in cell growth incubated for 48 hrs by CCK8 method
[2] = test system: RAW264.7; assay: Antiinflammatory activity in mouse RAW264.7 cells assessed as inhibition of LPS induced NO production at 10 uM preincubated for 24 hrs followed by LPS stimulation and measured after 24 hrs by Griess assay relative to control; design: scale not given: the % may be the effect or the level left; conditions: time 48 hrs
[3] = test system: H9c2; assay: Antioxidant activity against H2O2 treated rat H9c2 cells assessed as inhibition of MDA level at 10 uM incubated for 4 hrs followed by H2O2 administration by colorimetric assay relative to control; design: scale not given: the % may be the effect or the level left
[4] = test system: NCI-H460; assay: Cytotoxicity against human NCI-H460 cells assessed as reduction in cell growth incubated for 48 hrs by CCK8 method

C[C@H]1CC[C@H]2[C@H](C)[C@H]3CC[C@@H]4[C@@H](C[C@H]5[C@H]4C[C@@H](O)[C@H]4C[C@@H](O)CC[C@@]45C)[C@@H]3CN2C1
CC50 [1]: 19 µM
Activity [2]: 8.3%
Activity [3]: 38%
CC50 [4]: 10 µM

C[C@H]1CC[C@H]2[C@H](C)[C@@H]3CC[C@@H]4[C@@H](C[C@H]5[C@H]4CC(=O)[C@H]4C[C@@H](O)CC[C@@]45C)[C@@H]3CN2C1
CC50 [1]: 30 µM
Activity [2]: 23%
Activity [3]: 39%
CC50 [4]: 46 µM

C[C@H]1CC[C@H]2[C@H](C)[C@H]3CC[C@@H]4[C@@H](C[C@H]5[C@H]4CC(=O)[C@H]4C[C@@H](O)CC[C@@]45C)[C@@H]3CN2C1
CC50 [1]: 22 µM
Activity [2]: 42%
Activity [3]: 34%
CC50 [4]: 37 µM

C[C@@H]1CC[C@H]2[C@H](C)[C@H]3CC[C@@H]4[C@@H](C[C@H]5[C@H]4C[C@H](O)[C@H]4C[C@@H](O)CC[C@@]45C)[C@H]3C[N+]2([O-])C1 (stereo not given in full)
CC50 [1]: 38 µM
Activity [2]: 40%
Activity [3]: 15%
CC50 [4]: 45 µM

C[C@@H]1CC[C@H]2[C@H](C)[C@H]3CC[C@@H]4[C@@H](C[C@H]5[C@H]4CC(=O)[C@H]4C[C@@H](O)CC[C@@]45C)[C@H]3C[N+]2([O-])C1 (stereo not given in full)
CC50 [1]: 9.5 µM
Activity [2]: 1.4%
Activity [3]: 39%
CC50 [4]: 11 µM

C[C@H]1CC[C@H]2[C@H](C)[C@H]3CC[C@@H]4[C@@H](C[C@H]5[C@H]4C[C@H](O)[C@H]4C[C@@H](O)CC[C@@]45C)[C@@H]3CN2C1
CC50 [1]: 11 µM
Activity [2]: 57%
Activity [3]: 29%
CC50 [4]: 20 µM

C[C@@H]1CC[C@H]2[C@H](C)[C@H]3CC[C@@H]4[C@@H](C[C@H]5[C@H]4C[C@H](O)[C@H]4C[C@@H](O)CC[C@@]45C)[C@@H]3C[N+]2([O-])C1 (stereo not given in full)
CC50 [1]: 35 µM
Activity [2]: 24%
Activity [3]: 48%
CC50 [4]: 45 µM

C[C@@H]1CC[C@H]2[C@H](C)[C@H]3CC[C@@H]4[C@@H](C[C@H]5[C@H]4C[C@H](O)[C@H]4C[C@@H](O)CC[C@@]45C)[C@@H]3CN2C1
CC50 [1]: 23 µM
Activity [2]: 7.9%
Activity [3]: 15%
CC50 [4]: 40 µM

C[C@@H]1CC[C@H]2[C@H](C)[C@H]3CC[C@@H]4[C@@H](C[C@H]5[C@H]4CC(=O)[C@H]4C[C@@H](O[C@@H]6O[C@H](CO)[C@@H](O)[C@H](O)[C@H]6O)CC[C@@]45C)[C@H]3CN2C1
CC50 [1]: 19 µM
Activity [2]: 7.8%
Activity [3]: 53%
CC50 [4]: 59 µM

C[C@@H]1CC[C@H]2[C@H](C)[C@@H]3CC[C@@H]4[C@@H](C[C@H]5[C@H]4CC(=O)[C@H]4C[C@@H](O)CC[C@@]45C)[C@@H]3CN2C1
CC50 [1]: 31 µM
Activity [2]: 47%
Activity [3]: 21%
CC50 [4]: 37 µM

C[C@H]1CC[C@H]2[C@H](C)c3ccc4c(c3CN2C1)C[C@H]1[C@H]4C[C@H](O)[C@H]2C[C@@H](O)CC[C@@]21C
CC50 [1]: 34 µM
Activity [2]: 2.1%
Activity [3]: 43%
CC50 [4]: 65 µM

C[C@@H]1CC[C@H]2[C@H](C)[C@H]3CC[C@@H]4[C@@H](C[C@H]5[C@H]4CC(=O)[C@H]4C[C@@H](O)CC[C@@]45C)[C@@H]3CN2C1
CC50 [1]: 29 µM
Activity [2]: -1.3%
Activity [3]: 20%
CC50 [4]: 49 µM

CC1=C2C[C@H]3[C@@H](CC(=O)[C@H]4C[C@@H](O)CC[C@@]43C)[C@@H]2CC[C@]12O[C@@H]1C[C@H](C)CN[C@H]1[C@H]2C
CC50 [1]: 9.6 µM
Activity [2]: 66%
Activity [3]: 72%
CC50 [4]: 17 µM

C[C@@H]1CC[C@H]2[C@@H](C)[C@H]3CC[C@@H]4[C@@H](C[C@H]5[C@H]4CC(=O)[C@H]4C[C@@H](O[C@@H]6O[C@H](CO)[C@@H](O)[C@H](O)[C@H]6O)CC[C@@]45C)[C@@H]3CN2C1
CC50 [1]: 39 µM
Activity [2]: 6.1%
Activity [3]: 24%
CC50 [4]: 54 µM

C[C@@H]1CC[C@H]2[C@H](C)c3ccc4c(c3CN2C1)C[C@H]1[C@H]4C[C@H](O)[C@H]2C[C@@H](O)CC[C@@]21C
CC50 [1]: 52 µM
Activity [2]: 45%
Activity [3]: 58%
CC50 [4]: 65 µM

CC1=C2C[C@H]3[C@@H](CC(=O)[C@H]4C[C@H](O)CC[C@@]43C)[C@@H]2CC[C@]12O[C@@H]1C[C@H](C)CN[C@H]1[C@H]2C
CC50 [1]: 15 µM
Activity [2]: 73%
Activity [3]: 53%
CC50 [4]: 29 µM

C[C@H]1CC[C@@H]2[C@H](C)[C@@H]3CC[C@@H]4[C@@H](C[C@H]5[C@H]4CC(=O)[C@H]4C[C@@H](O)CC[C@@]45C)[C@@H]3CN2C1
CC50 [1]: 6.8 µM
Activity [2]: 62%
Activity [3]: 5.4%
CC50 [4]: 25 µM

C[C@@H]1CC[C@H]2[C@H](C)[C@H]3CC[C@@H]4[C@@H](C[C@H]5[C@H]4CC(=O)[C@H]4C[C@@H](O)CC[C@@]45C)[C@H]3CN2C1
CC50 [1]: 43 µM
Activity [2]: 44%
Activity [3]: 24%
CC50 [4]: 54 µM

C[C@@H]1CC[C@H]2[C@H](C)[C@H]3CC[C@@H]4[C@@H](C[C@H]5[C@H]4CC(=O)[C@H]4C[C@@H](O)CC[C@@]45C)[C@@H]3C[N+]2([O-])C1 (stereo not given in full)
CC50 [1]: 21 µM
Activity [2]: 0.9%
Activity [3]: 29%
CC50 [4]: 37 µM

C[C@H]1CC[C@@H]2[C@H](C)[C@@H]3CC[C@@H]4[C@@H](C[C@H]5[C@H]4C[C@@H](O)[C@H]4C[C@@H](O)CC[C@@]45C)[C@@H]3CN2C1
CC50 [1]: 10 µM
Activity [2]: 27%
Activity [3]: 33%
CC50 [4]: 12 µM
